Measured values: ChEMBL document CHEMBL5113392, “Novel hybrid pyrrolidinedione-thiazolidinones as potential anticancer agents: Synthesis and biological evaluation” (Eur J Med Chem, 2022)

Legend:
A549 = assay: Anticancer activity against human A549 cells assessed as cell growth inhibition incubated for 72 hrs by MTT assay; assay type: functional
[1] = Selectivity index, ratio of GI50 for human HaCaT cells to GI50 for human HeLa cells; assay type: toxicity; details: HaCaT cells versus HeLa cells, read-out: RatioGI50
[2] = Cytotoxicity against human HaCaT cells assessed as cell growth inhibition incubated for 72 hrs by MTT assay; assay type: toxicity, cell-based
[3] = Selectivity index, ratio of GI50 for human HaCaT cells to GI50 for human HCT-116 cells; assay type: toxicity; details: HaCaT cells versus HCT-116 cells, read-out: RatioGI50
[4] = Selectivity index, ratio of GI50 for human HaCaT cells to GI50 for human MDA-MB-231 cells; assay type: toxicity; details: HaCaT cells versus MDA-MB-231 cells, read-out: RatioGI50
HCT-116 = assay: Anticancer activity against human HCT-116 cells assessed as cell growth inhibition incubated for 72 hrs by MTT assay; assay type: functional
HeLa = assay: Anticancer activity against human HeLa cells assessed as cell growth inhibition incubated for 72 hrs by MTT assay; assay type: functional
U-251 = assay: Anticancer activity against human U-251 cells assessed as cell growth inhibition incubated for 72 hrs by MTT assay; assay type: functional
[5] = Selectivity index, ratio of GI50 for human HaCaT cells to GI50 for human MCF7 cells; assay type: toxicity; details: HaCaT cells versus MCF7 cells, read-out: RatioGI50
[6] = Selectivity index, ratio of GI50 for human HaCaT cells to GI50 for human U-251 cells; assay type: toxicity; details: HaCaT cells versus U-251 cells, read-out: RatioGI50
Jurkat = assay: Anticancer activity against human Jurkat cells assessed as cell growth inhibition incubated for 72 hrs by MTT assay; assay type: functional
MCF7 = assay: Anticancer activity against human MCF7 cells assessed as cell growth inhibition incubated for 72 hrs by MTT assay; assay type: functional
[7] = Selectivity index, ratio of GI50 for human HaCaT cells to GI50 for human SK-OV-3 cells; assay type: toxicity; details: HaCaT cells versus SK-OV-3 cells, read-out: RatioGI50
SK-OV-3 = assay: Anticancer activity against human SK-OV-3 cells assessed as cell growth inhibition incubated for 72 hrs by MTT assay; assay type: functional
[8] = Selectivity index, ratio of GI50 for human HaCaT cells to GI50 for human A549 cells; assay type: toxicity; details: HaCaT cells versus A549 cells, read-out: RatioGI50
[9] = Selectivity index, ratio of GI50 for human HaCaT cells to GI50 for human Jurkat cells; assay type: toxicity; details: HaCaT cells versus Jurkat cells, read-out: RatioGI50
MDA-MB-231 = assay: Anticancer activity against human MDA-MB-231 cells assessed as cell growth inhibition incubated for 72 hrs by MTT assay; assay type: functional
[10] = Selectivity index, ratio of GI50 for human HaCaT cells to GI50 for human HCT116-p53-null cells; assay type: toxicity; details: HaCaT cells versus HCT116-p53-null cells, read-out: RatioGI50
[11] = Anticancer activity against human HCT116-p53-null cells assessed as cell growth inhibition incubated for 72 hrs by MTT assay; assay type: functional
UACC-62 = assay: Anticancer activity against human UACC-62 cells assessed as inhibition of cell growth at 10 uM incubated for 48 hrs by SRB assay; assay type: functional
LOX IMVI = assay: Anticancer activity against human LOX IMVI cells assessed as inhibition of cell growth at 10 uM incubated for 48 hrs by SRB assay; assay type: functional
Salmon testes DNA = assay: Displacement of methyl green from salmon sperm DNA at 10 uM measured after 2 hrs by fluorescence plate reader method relative to control; assay type: nucleic-acid assay; details: Salmo salar
UO-31 = assay: Anticancer activity against human UO-31 cells assessed as inhibition of cell growth at 10 uM incubated for 48 hrs by SRB assay; assay type: functional; details: UO-31, 48 h, values are per cent of control
RPMI-8226 = assay: Anticancer activity against human RPMI-8226 cells assessed as inhibition of cell growth at 10 uM incubated for 48 hrs by SRB assay; assay type: functional

O=C1CC(N2C(=O)CSC2=S)C(=O)N1c1ccc(O)cc1 (stereo unspecified)
GI50 (A549): > 100 µM
selectivity ratio [1]: 1
GI50 at 72 h [2]: > 100 µM
selectivity ratio [3]: 1
selectivity ratio [4]: 1
GI50 (HCT-116): > 100 µM
GI50 (HeLa): > 100 µM
GI50 (U-251): > 100 µM
selectivity ratio [5]: 1
selectivity ratio [6]: 1
GI50 (Jurkat): 23.4 µM
GI50 (MCF7): > 100 µM
selectivity ratio [7]: 1.64
GI50 (SK-OV-3): 60.8 µM
selectivity ratio [8]: 1
selectivity ratio [9]: 4.27
GI50 (MDA-MB-231): > 100 µM
selectivity ratio [10]: 1
GI50 [11]: > 100 µM

C=CCOc1cccc(/C=C2\SC(=S)N(C3CC(=O)N(c4ccc(Br)cc4)C3=O)C2=O)c1 (stereo unspecified)
inhibition at 10 µM (UACC-62): 86.8%

C=CCOc1cccc(/C=C2\SC(=S)N(C3CC(=O)N(c4ccc(Cl)cc4)C3=O)C2=O)c1 (stereo unspecified)
GI50 (A549): > 100 µM
inhibition at 10 µM (LOX IMVI): 14.2%
selectivity ratio [1]: 1
GI50 at 72 h [2]: > 100 µM
selectivity ratio [3]: 1
selectivity ratio [4]: 1
GI50 (HCT-116): > 100 µM
GI50 (HeLa): > 100 µM
GI50 (U-251): > 100 µM
selectivity ratio [5]: 1.02
selectivity ratio [6]: 1
GI50 (Jurkat): 74 µM
GI50 (MCF7): 98 µM
selectivity ratio [7]: 1
GI50 (SK-OV-3): > 100 µM
selectivity ratio [8]: 1
selectivity ratio [9]: 1.35
GI50 (MDA-MB-231): > 100 µM
selectivity ratio [10]: 1
GI50 [11]: > 100 µM

CC[n+]1c(-c2ccccc2)c2cc(N)ccc2c2ccc(N)cc21
Activity (Salmon testes DNA): 84.1%

O=C1CC(N2C(=O)CSC2=S)C(=O)N1c1ccc(Cl)cc1 (stereo unspecified)
GI50 (A549): > 100 µM
selectivity ratio [1]: 1
GI50 at 72 h [2]: 97.7 µM
selectivity ratio [3]: 0.98
selectivity ratio [4]: 0.98
GI50 (HCT-116): > 100 µM
GI50 (HeLa): > 100 µM
GI50 (U-251): > 100 µM
selectivity ratio [5]: 0.98
selectivity ratio [6]: 0.98
growth, % of control at 10 µM (UO-31): 76.3%
GI50 (Jurkat): 88.4 µM
GI50 (MCF7): > 100 µM
selectivity ratio [7]: 0.98
GI50 (SK-OV-3): > 100 µM
selectivity ratio [8]: 0.98
selectivity ratio [9]: 1.1
GI50 (MDA-MB-231): > 100 µM
selectivity ratio [10]: 0.98
GI50 [11]: > 100 µM

O=C1Nc2ccccc2/C1=C1/SC(=S)N(C2CC(=O)N(c3ccc(Cl)cc3)C2=O)C1=O (stereo unspecified)
GI50 (A549): > 100 µM
selectivity ratio [1]: 1
GI50 at 72 h [2]: > 100 µM
selectivity ratio [3]: 1
selectivity ratio [4]: 1
GI50 (HCT-116): > 100 µM
GI50 (HeLa): > 100 µM
GI50 (U-251): > 100 µM
selectivity ratio [5]: 1
selectivity ratio [6]: 1
growth, % of control at 10 µM (UO-31): 68.5%
GI50 (Jurkat): 49.9 µM
GI50 (MCF7): > 100 µM
selectivity ratio [7]: 1
GI50 (SK-OV-3): > 100 µM
selectivity ratio [8]: 1
selectivity ratio [9]: 2
GI50 (MDA-MB-231): > 100 µM
selectivity ratio [10]: 1
GI50 [11]: > 100 µM
inhibition at 10 µM (RPMI-8226): 36.3%

O=C1Nc2ccc(Cl)cc2/C1=C1/SC(=S)N(C2CC(=O)N(c3ccc(Cl)cc3)C2=O)C1=O (stereo unspecified)
GI50 (A549): > 100 µM
selectivity ratio [1]: 1.72
GI50 at 72 h [2]: > 100 µM
selectivity ratio [3]: 1
selectivity ratio [4]: 1
GI50 (HCT-116): > 100 µM
GI50 (HeLa): 58 µM
GI50 (U-251): > 100 µM
selectivity ratio [5]: 1
selectivity ratio [6]: 1
GI50 (Jurkat): 6.1 µM
GI50 (MCF7): > 100 µM
selectivity ratio [7]: 1
GI50 (SK-OV-3): > 100 µM
selectivity ratio [8]: 1
selectivity ratio [9]: 16.4
GI50 (MDA-MB-231): > 100 µM
selectivity ratio [10]: 1
GI50 [11]: > 100 µM
